Data set [1] in a line: Pharmacokinetics of 250 mg PO D-cycloserine every 12 hrs in healthy volunteers (Park et al. 2015). The note with it: 250 mg PO every 12 hrs; corresponding to AUC over 12 hrs. The format is in vivo, humans.
The nature of data set [2]: Pharmacokinetics of DCS in rodent, plasma level by UPLC/MS/MS. The class given is in vivo, C57BL/6J mice. From the text:
Male C57BL/6J mice (8 weeks old) from Jackson Laboratories (Bar Harbor, Maine) were used. Upon receipt, mice were assigned unique identification numbers (tail marked) and were group housed in OPTImice cages. All animals were acclimated to the colony room for 1 week prior to testing. During the period of acclimation, animals were examined on a regular basis, handled, and weighed to assure adequate health and suitability. Animals were maintained on a 12/12 light/dark cycle. The room temperature was maintained between 20 and 23° C. with a relative humidity maintained between 30% and 70%. Chow and water were provided ad libitum for the duration of the study. All testing was performed during the animal's light cycle phase.
Sample were collected at 30, 60 and 120 min from separate animals. Mean plasma levels across the 30-120 min timepoint was used for analysis. At each time point, trunk blood was collected in tubes containing K2EDTA and kept on ice for short-term storage. Within 15 minutes of blood collection, tubes were centrifuged for 10 minutes at 10,000 RPM in a refrigerated centrifuge. The supernatant (plasma) was extracted and transferred to pre-labeled tubes on dry ice. Samples were stored at approximately −80° C. until analyses.
Analysis of DCS in plasma and brain samples were performed utilizing an UPLC/MS/MS system consisted of an Acquity UPLC chromatographic system and a Quattro Premier XE triple quad mass spectrometer, both from Waters.
The range of standards utilized was 1.0-1000 ng/mL. Plasma samples were prepared in the same manner but with 10 μL of sample and 90 μL of the internal standard mix to provide 100 μL of sample after dilution for triplicate analysis.
The internal standards D9-Ach (parent 154.95DA to fragment 86.7DA) was incorporated into the samples to correct for sample matrix and instrument variability providing a more robust data set.

The target of data set [3] is T1, NMDAR (Homo sapiens, UniProt Q05586).
T1 construct: endogenous in cells; host or cells: human subjects in vivo (neuronal receptors); no isolated protein
The note with it: cited from earlier work.

Data set [4] concerns Wistar-Kyoto (WKY) rats. In words: Cued fear conditioning / extinction training, freezing behavior in WKY rats. The format is in vivo, rat. The following applies: for Freezing behavior, direction of change vs. vehicle: WKY rats, across days 1 and 3. From the text: Inbred Wistar-Kyoto (WKY) rats have been used as models of several behavioral deficits, such as stress vulnerability and sleep disturbance.
Fear memories are crucial in psychiatric conditions such as PTSD. Pavlovian fear conditioning (FC) test is a widely-used behavioral assay in rodents for measurement of aversive learning and memory through learned associations between aversive stimulus (a mild electric shock) and a specific cue (e.g., a tone; cued conditioning) or a context in which electric shock had occurred (contextual conditioning). Once the association is established, the conditioned stimulus (CS, i.e. tone or context) can induce fear response in a similar manner to unconditioned stimulus (US, i.e. electric shock). However, if CS repeatedly presents without combination of US, extinction occurs in normal animals. Fear extinction is usually regarded as a new inhibitory learning after repeated or prolonged CS presentations without the US, which causes a gradual decrease in the magnitude and/or frequency of the conditioned response (i.e. freezing response in FC test). Deficits in such inhibitory learning can be regarded as a hallmark of clinical PTSD.
Young adult (about 7 weeks of age), male WKY and Wistar rats purchased from Charles River Laboratory were used in this study. Upon receipt, animals were group-housed (2 per cage) and acclimated for at least 7 days. All rats were examined, handled, and weighed prior to initiation of the study to assure adequate health and suitability. During the course of the study, 12/12 light/dark cycles were maintained. The room temperature was maintained between 20 and 23° C. with a relative humidity maintained around 50%. Rats were randomly assigned to each treatment group. All testing was conducted during the animals' light cycle.
When combined with DSC, the combinations were given in a cocktail 30 minute prior to extinction test • D-CPP-ene (5 mg/kg) was be dissolved in acidified saline and administered s.c 30 min prior to extinction test at a dose volume of 2 ml/kg • Lurasidone (Lur, 0.2 mg/kg was dissolved in saline and administered IP 30 min prior to test at a dose volume of 1 ml/kg • Quetiapine (QTP, 10 mg/kg) was dissolved in acidified saline and administered s.c 30 min prior to test at a dose volume of 1 ml/kg
The experiment was conducted in the fear conditioning system manufactured by Coulbourn Instruments (PA, USA). Animal's body movements are captured with a video system and the FreezeFrame software, and freezing is analyzed automatically by the FreezeView software (Coulbourn Instruments, PA, USA).
Fear Conditioning Training: Animals were exposed to 5 CS-US pairings of a 10 sec tone (70 dB conditioned stimulus/CS) co-terminating with a brief electric shock (0.5 mA for 1.0 sec unconditioned stimulus/US). The 5 CS-US pairings are separated by a 60 sec interval with the first CS at 120 s. The rats stage in boxes for one minute after the last shock before being moved out.
Extinction training: Extinction training was conducted twice at 24 and 72 hr post FC training. A cued FC extinction paradigm was applied. The extinction training was conducted in the “cylinder”, a changed context which is different from the boxes of FC training. The extinction training lasted 32-40 min, including 8-10 identical bins. Each bin includes a 2 min tone period followed by a 2 min no-tone period (inter-trial interval, ITI).
Percent freezing during bins 7-8 of extinction trainings (24 hr and 72 hr) was used to evaluate effectiveness of treatment. Data were analyzed by […] analyses of variance (ANOVA), with treatment/group and extinction stage (cues or bins) set as factors. Fisher LSD method was used in Post hoc comparisons if applicable.

In data set [5] the test system is C57BL/6J mice. In words: Open field (OF) test, locomotor activity. The note with it: for Locomotor activity vs. vehicle: 30 min after administration; for Locomotor activity, Mean distance travelled over 30 min: C57BL/6J mice.
A short description of data set [6]: Pharmacokinetics of D-cycloserine in humans after 500 mg (Zhu et al. 2001). The following applies: corresponding to AUC over 24 hr. The format is in vivo. The text has this: Critical parameters include maximum (peak) concentration achieved (Cmax), time to maximum concentration (Tmax) and area under the curve (AUC) during the dosing interval.
Data set [7] addresses T1, NMDAR. The experiment in a line: D-cycloserine plasma concentrations linked to agonist, antagonist and toxic effects; summary of human PK studies. The format is in vivo, humans. The following applies: consistent finding of human PK studies. As to the method:
D-cycloserine is an anti-tuberculosis medication that also acts as a partial glycine-site […] (aka mixed agonist/antagonist). […] Plasma concentrations associated with primarily agonist effects are primarily […]. Plasma concentrations associated with antagonist effects are >25 μg/mi. Increased liability for toxicity is observed at plasma levels >35 μg/mL.
Accordingly, the daily dose for producing such plasma levels will necessarily be above 500 mg/day, as described above.

The subject of data set [8] is mice. The experiment in a line: Marble burying test. The class given is in vivo. The note with it: Example 3.

Molecules are shown by their SMILES. “Also recorded” adds a separate entry of the source.

As to `N[C@@H]1CON=C1O` [D-cycloserine, 3-Isoxazolidinone, 4-amino-, (4R)-(9CI)], in data set [1], the mean plasma level is reported as 20. 2 microgram/mL. Also, the DCS plasma level result in data set [2] (30 mg/kg IP, mice, mean across 30-120 min, difference from 25 not significant (p=0.2)) was “below 25 microgram/mL”; in data set [2] (100 mg/kg and above IP, mice, mean across 30-120 min, p<0.01), > 25 microgram/mL; in data set [2] (300 mg/kg DCS as in prior examples), > 25 micrograms/mL. The “Plasma concentrations associated with antagonist effects” value in data set [3] (NMDAR glycine site) was > 25 μg/mi. Moreover, in data set [3] (in vivo), the “Plasma levels at which increased liability for toxicity is observed” value is > 35000 ng/mL. In addition, the “Percentage WKY animals showing freezing behavior >85% of the time in response to cue stimuli across day 1 and 3 following fear conditioning, Mean” value in data set [4] (DCS 30 mg/kg IP 30 min prior to extinction test) turned out to be 0.281; in data set [4] (DCS 300 mg/kg IP 30 min prior to extinction test) it was 0.113. Besides, the “Freezing behavior, direction of change vs. vehicle” value in data set [4] (DCS 30 mg/kg IP) is “no significant effect on freezing behavior”; in data set [4] (DCS 300 mg/kg IP, listed as DCS) it was “significant reduction in freezing behavior; also recorded: Decrease”. The “Effect of high-dose DCS on freezing when added to lurasidone” value in data set [4] (DCS 300 mg/kg added to lurasidone 0.2 mg/kg, p=0.09) is recorded as “tended to decrease freezing”. The “Effect of high-dose DCS on freezing in combination with quetiapine” value in data set [4] (DCS 300 mg/kg with quetiapine 10 mg/kg, p=0.3) was “without statistical effect”. Besides, the “Locomotor activity vs. vehicle” value in data set [5] (D-cycloserine 30 mg/kg, p=0.5) was “not significantly affected”; in data set [5] (D-cycloserine 300 mg/kg, p<0.001), “significantly increased”; in data set [5] (D-cycloserine 1000 mg/kg, p<0.001), “significantly increased”. For the same compound, the “Locomotor activity, Mean distance travelled over 30 min” value is 4432.1 in data set [5] (DCS 30 mg/kg IP) and 7588.5 in data set [5] (DCS 300 mg/kg IP). Further, the “median sustained plasma level” value in data set [6] was determined as 8.9 microgram/mL. For the same compound, the “Sustained plasma level following 500 mg administration” value in data set [7] is “below 25 microgram/mL”. Besides, the “Number of marbles buried compared to vehicle” value in data set [8] (D-cycloserine 30 mg/kg IP 30 min prior to test) and in data set [8] (D-cycloserine 300 mg/kg IP 30 min prior to test) was “did not affect this measure” each time.

The values above are taken from US11969431B2, “Formulations for treatment of post-traumatic stress disorder” (Glytech LLC, priority 2017, dated 2024).
